“Also recorded” adds a separate entry of the source.

The target of assay [1] is T1, MIF (Homo sapiens, UniProt P14174).
T1 construct: made in house; host or cells: Escherichia coli BL21, pET-20b(p) plasmid
T1 sequence (P14174 2-115 limits assumed): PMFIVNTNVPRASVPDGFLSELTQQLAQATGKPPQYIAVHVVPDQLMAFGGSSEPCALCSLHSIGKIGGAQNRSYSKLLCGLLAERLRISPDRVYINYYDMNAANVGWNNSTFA
Kind of assay: Microscale thermophoresis (MST) binding assay. The following applies: 25 °C, RED-tris-NTA labeled MIF. Here is the method: A microscale thermophoresis (MST) assay was performed to confirm the binding of 6y to MIF. […] Overall, we concluded that 6y binds reversibly to an allosteric binding site that affects MIF tautomerase activity.
MST experiments were performed on a Monolith NT.115 system (NanoTemper Technologies) using 100% LED and 60% IR-laser power. Laser on and off times were set at 30 and 5 s, respectively. A 100 nM dye solution RED-tris-NTA was prepared by mixing 2 μL of the dye (5 μM in DMSO) and 98 μL of PBS-T. The protein concentration was adjusted to 200 nM, and 100 μL of this solution was added to the tube with dye and incubated at rt for 30 min. Meanwhile, a twofold dilution series of compound 6y was prepared in PBS-T containing 5% DMSO. Subsequently, 10 μL of labeled MIF was mixed with 10 μL of the samples with 16 different concentrations of 6y ranging from 2000 to 0.06 μM. The samples were centrifuged for 10 min at rt and the supernatant was transferred into fresh tubes. After that, the standard treated capillaries (K002) were filled with the solutions and the MST curves were measured at 25 °C.
In general terms: MST reads how a fluorescent partner responds to local heating, with and without ligand.

Another assay relates to HeLa cells. Kind of assay: Cell morphology after MNNG treatment. It counts as cell-based. The following applies: pretreatment with 6y, dose- and time-dependent. From the text:
In addition, cellular morphology was investigated to see if the MIF inhibitor 6y restores the original phenotype.

In a further assay the target is T2, MIF/ssDNA binding (Homo sapiens, UniProt P14174).
T2 construct: made in house; host or cells: Escherichia coli BL21
T2 sequence (P14174 2-115 limits assumed): T1 sequence (P14174 2-115 limits assumed)
Briefly: MIF/ssDNA binding assay (ZP307-labeled MIF, PA20-Q1 quenching). The following applies: labeled MIF 1 μM, PA20-Q1 1 μM; 6y up to 100 μM. An excerpt:
Although in our hands the nuclease activity could not unambiguously be assigned to MIF (due to the possibility of bacterial contamination), there is still a possibility that MIF binds to single-stranded DNA (ssDNA). Furthermore, the direct interaction between MIF and ssDNA was investigated. We developed a MIF/ssDNA binding assay to detect and quantify the binding of MIF to ssDNA (Figure 6f). To establish this assay, we employed a MIF probe ZP307 (Figure 1c) that binds covalently to the N-terminal proline of MIF. This probe enables the fluorescent labeling of MIF.[38] The oligonucleotide Poly A was earlier described as a MIF nuclease substrate, lacking a secondary structure.[11] […] This enabled using the BHQ1-labeled poly A oligonucleotide (PA20-Q1) as an energy acceptor to quench fluorescence emission by labeling MIF once a MIF/ssDNA complex formed (Figure 6f). […]
Five equivalents of probe ZP307 were mixed with recombinant MIF protein for MIF labeling and incubated overnight at 4 °C. […] The fluorescence (Ex488/Em520) was determined immediately using a BioTek Synergy H1 Hybrid plate reader. The wells in the absence of PA20-Q1 were considered a positive control (100% of fluorescence signal), whereas the wells without inhibitors were considered a negative control (0% of fluorescence signal).

In assay [2] the target is T1, MIF. Kind of assay: MIF tautomerase activity assay (PP substrate, UV absorbance at 300 nm). It counts as biochemical. As for the experimental part: Recombinant human MIF with a C-terminal His-tag was expressed and purified following methods published previously.[47] The inhibitory potency for MIF tautomerase activity of the 1-phenyl-1H-1,2,3-triazole-4-carboxamides was measured after pre-incubation with MIF. The MIF-catalyzed PP tautomerization was measured by the corresponding change in UV absorbance over the first 3 min of the reaction.[48] Initial screening of the inhibitory potency was performed at 10 μM inhibitor concentration.
Inhibition of the tautomerase activity and kinetics of MIF was measured using […] (PP) as a substrate. A stock solution was prepared by mixing PP in 50 mM ammonium acetate buffer and adjusted to pH 6.0 using 1.0 M NaOH to provide a concentration of 20 mM. This solution was incubated overnight at 37 °C to allow equilibration of the keto and enol forms and then stored at 4 °C. For the assay, MIF stock solution (10 μL, 70 μM) was diluted in 20 mL of the boric acid buffer (435 mM H3BO3, 1 mM EDTA, pH 6.2) to provide 35 nM solution. The enzyme activity was determined by premixing 192 μL of the MIF dilution with 8 μL of the inhibitors dissolved in DMSO (1 mM). This mixture was preincubated for 10 min. Next, 50 μL of the mixture was mixed with 50 μL of 2 mM PP solution in ammonium acetate buffer. Subsequently, MIF tautomerase activity was monitored by the formation of the borate–enol complex, which was measured by the increase in UV absorbance at 300 nm. The increase in UV absorbance was measured over the first 10 min of incubation using a BioTek Synergy H1 Hybrid plate reader. MIF tautomerase activity in the presence of blank DMSO was set to 100% enzyme activity. […] Data from the first 3 min were used to calculate the initial velocities. All of the graphs were prepared in GraphPad Prism.
For the IC50 measurements, 1 mM solutions of the compounds were double-diluted 10 times in DMSO and subsequently, the MIF tautomerase activity was determined by premixing 190 μL of the MIF dilution with 10 μL of the inhibitors. This mixture was preincubated for 10 min and mixed with the 2 mM PP solution as described above.

Broadly, the Kd is the constant that tells how readily two partners part at equilibrium. The remaining activity is the activity still measured, relative to the control. As usually defined, the IC50 is the concentration at which inhibition is half-maximal. As to `O=C(Nc1ccccc1)c1ccc(-n2cc(C(=O)NCc3cccs3)nn2)cc1` [Compound 6y, 1-(4-(Phenylcarbamoyl)phenyl)-N-(thiophen-2-ylmethyl)-1H-1,2,3-triazole-4-carboxamide], the Kd on MIF [1] came to 95 µM. Moreover, the “Restoration of original cell phenotype after MNNG” value in the assay on HeLa cells is on record as “mainly (but not completely) restored”. On MIF/ssDNA binding, the MIF/PA20-Q1 binding result is given as “unable to block MIF/PA20-Q1 binding; also recorded: could not replace the oligonucleotide”. In addition, the remaining activity at 10 µM at MIF [2] (10 μM inhibitor, activity without inhibitor set to 100%, mean, n = 3) came to 12%. The IC50 at MIF [2] (PP as substrate, 10 min preincubation, read-out: IC50, inhibition of MIF tautomerase activity) worked out at 1.7 ± 0.1 µM.

Source of the values: publication PMC10350922, “Allosteric Inhibitors of Macrophage Migration Inhibitory Factor (MIF) Interfere with Apoptosis-Inducing Factor (AIF) Co-Localization to Prevent Parthanatos” (Journal of Medicinal Chemistry, 2023).
